Assay results published in patent EP0569598A1, “BENZOXAZINONE DERIVATIVE” (JAPAN TOBACCO INC., priority 1991, dated 1993).

Columns and labels:
[1] = test system: neutrophiles from the human peripheral blood; assay: Human neutrophile chemotaxis suppressing activity (fMLP, chemotaxis chamber); assay type: cell-based; conditions: 10-⁷M fMLP, one hour at 37°C; for Chemotaxis: experiment without compound regarded as 100
Procedure: The neutrophile fraction (60% percoal fraction having neutrophile purity of 90% or more) was taken from the human peripheral blood by means of percoal density gradient centrifugation at 2300 rpm for 20 minutes.
An intercell having a pore diameter of 5 µm, containing 8 x 10⁵ of neutrophiles and the compound of the present invention adjusted in various concentrations was placed in each well of a chemotaxis chamber (KURABO), in which has been added 1300 µl of a medium containing 10-⁷M of formylmethionyl-leucyl-phenylalanine (fMLP), which is a neutrophile chemotaxis factor. After incubating for one hour at 37°C in an incubator containing 5% carbon dioxide, the number of cells migrating from the upper side of the intercell membrane into the lower side of the membrane in the chamber was counted by the following method. That is, the lower side surface of the intercell membrane was washed with PBS for 4 times and fixed with methanol and dyed with hematoxylin-eosin solution. The membrane was removed from the intercell and placed on a slide, dried in air, followed by sealing with Canada balsam. The cell number was microscopically counted in 5 visual fields. Taking average number of the five fields, the average was employed as the number of migrating cells. The value subtracting the migrating cell number in a control experiment containing no fMLP from the cell number in an experiment containing no the compound of the present invention was regarded as 100, the chemotaxis suppressing activity was determined as the following formula: Neutrophilic chemotaxis suppressing activity (%) [formula] = 100 - A/B x 100 [formula] = 100 - (C - D)/(E-D) x 100 [formula] Where: • A: chemotaxis measured in the experiment containing the compound of the present invention; • B: chemotaxis measured in the experiment not containing the compound of the present invention • C: the number of migrating cells measured in the experiment containing both the compound of the present invention and fMLP. • D: the number of migrating cells in the experiment containing neither the compound of the present invention nor fMLP. • E: the number of migrating cells in the experiment containing only fMLP.

human cathepsin G (HCG) = molecular target: T1, human cathepsin G (HCG) (Homo sapiens, UniProt P08311); assay: HCG inhibitory activity (synthetic substrate, pNA release); assay type: biochemical; conditions: pH 7.5; HCG 50 nM, substrate 0.5 mM; read-out: IC₅₀ value HCG
T1 construct: purchased Cosmo Bio Inc
T1 sequence (P08311 21-244): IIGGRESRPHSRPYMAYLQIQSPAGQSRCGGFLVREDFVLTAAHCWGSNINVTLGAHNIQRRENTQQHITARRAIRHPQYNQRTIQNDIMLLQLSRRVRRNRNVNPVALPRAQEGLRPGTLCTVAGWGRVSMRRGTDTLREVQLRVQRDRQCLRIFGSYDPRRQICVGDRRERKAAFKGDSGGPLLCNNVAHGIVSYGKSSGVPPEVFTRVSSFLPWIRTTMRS
Procedure: (§1) Activities of the Benzoxazine derivatives of the present invention against human leukocyte elastase (HLE), human sputum elastase (HSE), human cathepsin G (HCG), bovine pancreatic α-chmotrypsin (CYT) and bovine pancreatic trypsin (TRY) were measured by the following method.
(§2) A test compound was dissolved in DMSO (for fluorometry) and prepared various concentration of the solution. To each concentration was added 2-fold volume of 0.2M Tris-HCl (pH8.6), thereby obtaining a test solution. Synthetic substrate (Funakoshi, L-1335) was dissolved in DMSO and 2-volume of 0.2M Tris-HCl (pH8.6) was added thereto, thereby obtaining a substrate solution. The reaction was performed using a microplate having 96 wells (Nunk). Six-time reactions were repeated for each concentration. One handred and forty µl of an enzyme solution containing 0.2M Tris-HCl (pH8.6), 30 µl of a test solution and 30 µl of a substrate solution per well of the microplate were respectively pre-incubated at 37°C for 10 minutes. After completion of the incubation, the enzyme solution was mixed with the test sample and incubated for 10 minutes and then the substrate solution was added to perform an enzyme reaction. The absorbance of released P-nitroanilide (PNA) was measured at the wave length of 405 nm by means of a microplate reader (MTP-100; CORONA), thereby determining the substrate decomposition. The rate of the substrate decomposition was shown as an average value of 6 repeated reactions. The inhibitory concentration of a test compound relative to the amount of the substrate decomposition in the reaction mixture without a test compound was regarded as an IC₅₀ value. The final concentration of HLE and a synthesized substrate in the reaction mixture were 5.63 nM and 0.2625 mM, respectively.
a) Enzyme obtaining route HCG was obtained from Cosmo Bio Inc.
The same method as in the measurement of HLE inhibitory activity was used except that a buffer solution (pH 7.5) was used. The final concentration of HCG and synthetic substrate (Funakoshi, L-1010) in a reaction mixture were 50 nM and 0.5 mM, respectively.

[2] = molecular target: T2, bovine pancreatic α-chmotrypsin (CYT) (Bos taurus, UniProt P00766); assay: CYT inhibitory activity (synthetic substrate, pNA release); assay type: biochemical; conditions: pH 8.0; CYT 3.4 nM, substrate 0.273 mM; read-out: IC₅₀ value CYT
T2 construct: bovine pancreatic α-chmotrypsin (CYT); purchased Sigma Co., Ltd
Procedure: as §1, §2
a) Enzyme obtaining route CYT was obtained from Sigma Co., Ltd.
Substantially the same method as used in the measurement of the HLE inhibitory activity was used except that a buffer solution (pH 8.0) was used. The final concentration of CYT and synthetic substrate (Funakoshi, L-1010) in a reaction mixture were 3.4 nM and 0.273 mM, respectively.

[3] = molecular target: T3, human leukocyte elastase (HLE) (Homo sapiens, UniProt P08246); assay: HLE inhibitory activity (synthetic substrate, pNA release, absorbance 405 nm); assay type: biochemical; conditions: pH 8.6; HLE 5.63 nM, substrate 0.2625 mM; 37°C; read-out: IC₅₀ value HLE
T3 construct: the mixed solution was subjected to density gradient centrifugation, thereby obtaining neutrophiles; from tissue; host or cells: neutrophils from human vein blood (buffy coat)
T3 sequence (P08246 30-247 limits assumed): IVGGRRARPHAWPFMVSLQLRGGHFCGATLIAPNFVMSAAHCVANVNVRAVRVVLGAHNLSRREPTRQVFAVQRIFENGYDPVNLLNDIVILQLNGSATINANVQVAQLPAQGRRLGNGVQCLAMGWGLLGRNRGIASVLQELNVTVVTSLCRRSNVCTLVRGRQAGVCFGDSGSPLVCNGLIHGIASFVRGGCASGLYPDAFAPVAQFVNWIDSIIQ
Procedure: as §1
A buffy coat was obtained by subjecting human vein blood to centrifugation. To the buffy coat was added distilled water to make a hypotonic solution, thereby bursting erythrocytes. To the residual blood cell component was added a 33.4% of Conrey 400 solution/9% Ficoll solution (the ratio of the former solution to the latter solution is 10:24), and the mixed solution was subjected to density gradient centrifugation, thereby obtaining neutrophiles. The neutrophile fraction was washed with Hanks' buffer for three times and then cells were recovered and cryopreserved at -80°C until use. The cryopreserved-cells were thawed with warm water at 37°C and suspended in a 9-fold volume of lysis buffer containing 0.1M Tris-HCl (pH7.5), 1M MgCl₂ and 0.1% Brij 35. The suspended cells are destroyed by means of polotoron with ice-cooling. The cell suspension was subjected to centrifugation at 100,000 x g for 1 hour. After removing precipitates, 2-fold volume of a Tris-HCl buffer containing 5 mM Tris-HCl(pH 7.5), 1M NaCl and 1.1% Brij 35 was added to the supernatant, thereby obtaining a crude solution of an enzyme extract. The crude solution was subjected to aprotinine affinity column and extracted with an elution buffer containing […] of glycine-HCl (pH 3.3), 1M NaCl and 0.1% Brij 35, thereby obtaining an active fraction. The obtained active fraction was further subjected to MONO S-ion-exchange chromatography and eluted with 2M NaCl linear gradient. The obtained fraction was dialyzed against 25 mM Tris-HCl (pH8.6) and lyophilized, thereby obtained an enzyme sample.
as §2

[4] = molecular target: T4, bovine pancreatic trypsin (TRY) (Bos taurus, UniProt P00760); assay: TRY inhibitory activity (synthetic substrate, pNA release); assay type: biochemical; conditions: pH 7.5; TRY 25 nM, substrate Z-Arg-pNA 1.0 mM; read-out: IC₅₀ value TRY
T4 construct: bovine pancreatic trypsin (TRY); purchased Sigma Inc
T4 sequence (P00760 24-246): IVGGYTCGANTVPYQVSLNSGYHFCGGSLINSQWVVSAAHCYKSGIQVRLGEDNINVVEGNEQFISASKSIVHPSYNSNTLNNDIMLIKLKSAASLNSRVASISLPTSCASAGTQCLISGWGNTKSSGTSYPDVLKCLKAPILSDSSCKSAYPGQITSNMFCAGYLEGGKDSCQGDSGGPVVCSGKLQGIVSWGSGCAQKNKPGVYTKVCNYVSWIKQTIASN
Procedure: as §1
as §2, with “The rate of the substrate decomposition was shown as an average value of 6 repeated reactions. The inhibitory concentration of a test compound relative to the amount of the substrate decomposition in the reaction mixture without a test compound was regarded as an IC₅₀ value. The final concentration of HLE and a synthesized substrate in the reaction mixture were 5.63 nM and 0.2625 mM, respectively.” left out

[5] = molecular target: T5, human sputum elastase (HSE) (Homo sapiens, UniProt P08246); assay: HSE inhibitory activity (synthetic substrate, pNA release); assay type: biochemical; conditions: pH 7.0; HSE 10 nM, substrate 0.25 mM; read-out: IC₅₀ value HSE
T5 construct: human sputum elastase (HSE); purchased Sigma Inc
T5 sequence (P08246 30-267): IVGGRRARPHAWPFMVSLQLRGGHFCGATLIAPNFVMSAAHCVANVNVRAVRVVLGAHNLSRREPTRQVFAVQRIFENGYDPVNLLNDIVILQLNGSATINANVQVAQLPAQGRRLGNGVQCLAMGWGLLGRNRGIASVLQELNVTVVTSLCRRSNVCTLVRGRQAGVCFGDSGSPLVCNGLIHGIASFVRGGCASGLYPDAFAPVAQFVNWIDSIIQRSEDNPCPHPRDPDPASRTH
Procedure: as §1
as §2, with “The rate of the substrate decomposition was shown as an average value of 6 repeated reactions. The inhibitory concentration of a test compound relative to the amount of the substrate decomposition in the reaction mixture without a test compound was regarded as an IC₅₀ value. The final concentration of HLE and a synthesized substrate in the reaction mixture were 5.63 nM and 0.2625 mM, respectively.” left out

SMILES	IC50 (human cathepsin G (HCG))	IC50 [2]	IC50 [3]	also measured
Cc1cccc2nc([C@@H](NC(=O)COC(c3ccccn3)c3ccccn3)C(C)C)oc(=O)c12 [Compound 4]	–	–	550 nM	–
Cc1cccc2nc([C@@H](NC(=O)OCC34CC5CC(CC(C5)C3)C4)C(C)C)oc(=O)c12 [Compound 6, 2-[1(S)-[[(1-adamantyl)methoxy-carbonyl]amino]-2-methylpropyl]-5-methyl-4H-3,1-benzoxazin-4-one]	> 25 µM	1550 nM	210 nM	IC50 [4]: > 12.6 µM; IC50 [5]: 260 nM
Cc1cccc2nc([C@@H](NC(=O)CON=C(c3ccccc3)c3ccccn3)C(C)C)oc(=O)c12 [Compound 9, 5-Methyl-2-[2-methyl-1(S)-[[[[[phenyl(2-pyridyl)methylene]amino]oxy]acetyl]amino]propyl]-4H-3,1-benzoxazin-4-one]	–	–	550 nM	–

Second part, led by results:

IC50 (human cathepsin G (HCG))	IC50 [2]	IC50 [3]	SMILES	also measured
> 27.4 µM	830 nM	220 nM	Cc1cccc2nc([C@@H](NC(=O)COC(c3ccccc3)c3ccccc3)C(C)C)oc(=O)c12 [Compound 2, 2-[1(S)-[[(diphenylmethoxy)acetyl]amino]-2-methylpropyl]-5-methyl-4H-3,1-benzoxazin-4-one]	Chemotaxis ([1]; Concentration 0.125 µM): 70.6; Chemotaxis ([1]; Concentration 1.000 µM): 57.4; activity at 0.125 µM ([1]; Homo sapiens, 1 h, Concentration 0.125 µM): 29.4%; activity at 1 µM ([1]; Homo sapiens, 1 h, Concentration 1.000 µM): 42.6%
–	–	790 nM	Cc1cccc2nc([C@@H](NC(=O)CN(c3ccccc3)c3ccccc3)C(C)C)oc(=O)c12 [Compound 7, 2-{1(S)-[(N,N-diphenyl-glycyl)amino]-2-methylpropyl}-5-methyl-4H-3,1-benzoxazin-4-one]	–
–	–	400 nM	Cc1cccc2nc([C@@H](NC(=O)CCC(c3ccccc3)c3ccccc3)C(C)C)oc(=O)c12 [Compound 8, 2-{1(S)-[(4,4-diphenylbutyryl)amino]-2-methylpropyl}-5-methyl-4H-3,1-benzoxazin-4-one]	–
